Reference: paper PMC11538706, “Integrated Electrochemical Aptamer Biosensing and Colorimetric pH Monitoring via Hydrogel Microneedle Assays for Assessing Antibiotic Treatment” (Advanced Science, 2024)
Like-named read-outs stand apart in the source and are kept apart here.

Tests used:
GEN aptamer = test: Specificity test of GEN aptamer-modified Flex electrode; type: binding; conditions: buffer 1X PBS + 2 mM MgCl2; SWV; TOBI 10 µM, DOX 100 ng/mL
Method: Additionally, employing the “dual‐frequency” method reduced the batch‐to‐batch variability and improved the sensor response (Figure S6, Supporting Information).
To determine the signal‐on and signal‐off frequencies for each of these aptamers, the aptamer‐modified Flex electrode was first dipped in a blank buffer and scanned (via SWV) at a range of frequencies (Ref). […] The sensor response at each target concentration and for each frequency was calculated via (I – I0) / I0, where “I” is the observed current (SWV peak height) at each condition, and “I0” is the observed current in the blank buffer. As a result, the frequency of 5 and 100 were selected as the signal‐off and signal‐on for the VAN aptamer. […] Afterward (and for the rest of the experiments), the sensor's response is defined as (I – I0) / I0, where the “I” represents the dual‐frequency current (I signal‐on / I signal‐off) at the experimental condition and “I0” represents the dual frequency current (I signal‐on / I signal‐off) of the (0 µM) buffer. To validate the selectivity of HMN‐Flex for VAN/GEN the aptamer‐functionalized Flex electrodes were subjected to non‐specific targets commonly present in ISF and their responses were recorded.

[1] = PK analysis: Cmax and AUC from PK models fitted to serum and ISF concentrations; type: in vivo, Male Sprague Dawley rats; conditions: male, Sprague Dawley, rat, iv
Method: The estimation of PK parameters, such as the area under the time‐concentration level curve (AUC) and the peak concentrations (Cmax) was performed using two PK models describing the observed patterns of serum and ISF concentrations (Figure S13, Supporting Information) and the Spearman correlation test was used to assess the correlation between PK parameters in serum and ISF.^[ [53] ^] The ISF VAN concentrations used for PK analysis were drawn by interpolating the sensor's response in the VAN calibration curve. The VAN AUC and Cmax from ISF and serum were correlated with correlation values of 0.82 and 0.79, respectively (Figure 5c‐iii).
We also employed the HMN‐Flex assay for detecting GEN in ISF and drawing its PK profile. […] For this purpose, the HMN‐Flex response was monitored every 10 min up to 90 min, followed by two other measurements at 6‐ and 24‐hours (h) postinjection. […] To the best of our knowledge, this is the first time reporting the changes in ISF GEN levels in the rat animal models. […] Importantly, the PK measurements obtained using HMN‐Flex closely matched those derived from conventional blood‐based measurements while the high temporal resolution offered by the HMN‐Flex assay can potentially revolutionize the current TDM.
Two distinct PK models were utilized for this purpose: one for describing antibiotic concentrations in serum, using a 1‐compartment PK model with linear elimination, and another for ISF, consisting of three compartments in series. The model fitting process was carried out using the first‐order conditional estimation method with interaction (FOCEI) routine in Nonmem v7.4, and subsequent PK profiles were simulated from the fitted models using the mrgsolve package in R. AUC and Cmax values were directly derived from the simulated PK profiles, and the correlation between these PK parameters in serum and ISF was assessed using the Spearman correlation test.

[2] = design: method as in PMID 24972859, PMID 29019915; conditions: cited from earlier work

COc1cccc2c1C(=O)c1c(O)c3c(c(O)c1C2=O)C[C@@](O)(C(=O)CO)C[C@@H]3O[C@H]1C[C@H](N)[C@H](O)[C@H](C)O1 [DOX, Doxorubicin]
GEN sensor response to non-specific targets (GEN aptamer): did not produce a response

CNC(C)C1CCC(N)C(OC2C(N)CC(N)C(OC3OCC(C)(O)C(NC)C3O)C2O)O1 (centres unmarked) [GEN, gentamicin]
AUC ([1]; ISF, 50 mg/kg, GEN, Rat # 4, dose 50 mg/kg i.v., read-out: ISF AUC (converted)): 1070 µM·h
Cmax ([1]; ISF, 50 mg/kg, GEN, Rat # 4, dose 50 mg/kg i.v., read-out: ISF Cmax): 221 µM
AUC ([1]; ISF, 50 mg/kg, GEN, Rat # 5, dose 50 mg/kg i.v., read-out: ISF AUC (converted)): 1230 µM·h
Cmax ([1]; ISF, 50 mg/kg, GEN, Rat # 5, dose 50 mg/kg i.v., read-out: ISF Cmax): 387 µM
AUC ([1]; ISF, 100 mg/kg, GEN, Rat # 6, dose 100 mg/kg i.v., read-out: ISF AUC (converted)): 3490 µM·h
Cmax ([1]; ISF, 100 mg/kg, GEN, Rat # 6, dose 100 mg/kg i.v., read-out: ISF Cmax): 886 µM
AUC ([1]; interstitial fluid (ISF), 50 mg/kg, GEN, Rat # 2, dose 50 mg/kg i.v., read-out: ISF AUC (converted)): 509 µM·h
Cmax ([1]; interstitial fluid (ISF), 50 mg/kg, GEN, Rat # 2, dose 50 mg/kg i.v., read-out: ISF Cmax): 148 µM
AUC ([1]; interstitial fluid (ISF), 50 mg/kg, GEN, Rat # 3, dose 50 mg/kg i.v., read-out: ISF AUC (converted)): 776 µM·h
Cmax ([1]; interstitial fluid (ISF), 50 mg/kg, GEN, Rat # 3, dose 50 mg/kg i.v., read-out: ISF Cmax): 253 µM
AUC ([1]; interstitial fluid (ISF), 100 mg/kg, GEN, Rat # 1, dose 100 mg/kg i.v., read-out: ISF AUC (converted)): 848 µM·h
Cmax ([1]; interstitial fluid (ISF), 100 mg/kg, GEN, Rat # 1, dose 100 mg/kg i.v., read-out: ISF Cmax): 279 µM
AUC ([1]; interstitial fluid (ISF), 100 mg/kg, GEN, Rat # 2, dose 100 mg/kg i.v., read-out: ISF AUC (converted)): 827 µM·h
Cmax ([1]; interstitial fluid (ISF), 100 mg/kg, GEN, Rat # 2, dose 100 mg/kg i.v., read-out: ISF Cmax): 324 µM
AUC ([1]; serum, 50 mg/kg, GEN, Rat # 2, dose 50 mg/kg i.v., read-out: Serum AUC (converted)): 467 µM·h
Cmax ([1]; serum, 50 mg/kg, GEN, Rat # 2, dose 50 mg/kg i.v., read-out: Serum Cmax): 680 µM
AUC ([1]; serum, 50 mg/kg, GEN, Rat # 3, dose 50 mg/kg i.v., read-out: Serum AUC (converted)): 321 µM·h
Cmax ([1]; serum, 50 mg/kg, GEN, Rat # 3, dose 50 mg/kg i.v., read-out: Serum Cmax): 807 µM
AUC ([1]; serum, 50 mg/kg, GEN, Rat # 4, dose 50 mg/kg i.v., read-out: Serum AUC (converted)): 108 µM·h
Cmax ([1]; serum, 50 mg/kg, GEN, Rat # 4, dose 50 mg/kg i.v., read-out: Serum Cmax): 268 µM
AUC ([1]; serum, 50 mg/kg, GEN, Rat # 5, dose 50 mg/kg i.v., read-out: Serum AUC (converted)): 2380 µM·h
Cmax ([1]; serum, 50 mg/kg, GEN, Rat # 5, dose 50 mg/kg i.v., read-out: Serum Cmax): 4100 µM
AUC ([1]; serum, 100 mg/kg, GEN, Rat # 1, dose 100 mg/kg i.v., read-out: Serum AUC (converted)): 2410 µM·h
Cmax ([1]; serum, 100 mg/kg, GEN, Rat # 1, dose 100 mg/kg i.v., read-out: Serum Cmax): 1870 µM
AUC ([1]; serum, 100 mg/kg, GEN, Rat # 2, dose 100 mg/kg i.v., read-out: Serum AUC (converted)): 1120 µM·h
Cmax ([1]; serum, 100 mg/kg, GEN, Rat # 2, dose 100 mg/kg i.v., read-out: Serum Cmax): 1320 µM
AUC ([1]; serum, 100 mg/kg, GEN, Rat # 6, dose 100 mg/kg i.v., read-out: Serum AUC (converted)): 3380 µM·h
Cmax ([1]; serum, 100 mg/kg, GEN, Rat # 6, dose 100 mg/kg i.v., read-out: Serum Cmax): 4280 µM
protein binding [2]: 30%

NC[C@H]1O[C@H](O[C@H]2[C@H](O)[C@@H](O[C@H]3O[C@H](CO)[C@@H](O)[C@H](N)[C@H]3O)[C@H](N)C[C@@H]2N)[C@H](N)C[C@@H]1O [TOBI, Tobramycin]
GEN sensor response to non-specific targets (GEN aptamer): increase in current

CN[C@H](CC(C)C)C(=O)N[C@H]1C(=O)N[C@@H](CC(N)=O)C(=O)N[C@H]2C(=O)N[C@H]3C(=O)N[C@H](C(=O)N[C@H](C(=O)O)c4cc(O)cc(O)c4-c4cc3ccc4O)[C@H](O)c3ccc(c(Cl)c3)Oc3cc2cc(c3O[C@@H]2O[C@H](CO)[C@@H](O)[C@H](O)[C@H]2O[C@H]2C[C@](C)(N)[C@H](O)[C@H](C)O2)Oc2ccc(cc2Cl)[C@H]1O [VAN, vancomycin]
AUC ([1]; in vivo, 15 mg/kg, VAN, Rat # 1, dose 15 mg/kg i.v., read-out: ISF AUC (converted)): 37 µM·h
Cmax ([1]; in vivo, 15 mg/kg, VAN, Rat # 1, dose 15 mg/kg i.v., read-out: ISF Cmax): 28.3 µM
AUC ([1]; in vivo, 15 mg/kg, VAN, Rat # 1, dose 15 mg/kg i.v., read-out: Serum AUC (converted)): 59.1 µM·h
Cmax ([1]; in vivo, 15 mg/kg, VAN, Rat # 1, dose 15 mg/kg i.v., read-out: Serum Cmax): 117 µM
AUC ([1]; in vivo, 15 mg/kg, VAN, Rat # 2, dose 15 mg/kg i.v., read-out: ISF AUC (converted)): 8.72 µM·h
Cmax ([1]; in vivo, 15 mg/kg, VAN, Rat # 2, dose 15 mg/kg i.v., read-out: ISF Cmax): 8.4 µM
AUC ([1]; in vivo, 15 mg/kg, VAN, Rat # 2, dose 15 mg/kg i.v., read-out: Serum AUC (converted)): 50.8 µM·h
Cmax ([1]; in vivo, 15 mg/kg, VAN, Rat # 2, dose 15 mg/kg i.v., read-out: Serum Cmax): 99.9 µM
AUC ([1]; in vivo, 45 mg/kg, VAN, Rat # 1, dose 45 mg/kg i.v., read-out: ISF AUC (converted)): 139 µM·h
Cmax ([1]; in vivo, 45 mg/kg, VAN, Rat # 1, dose 45 mg/kg i.v., read-out: ISF Cmax): 94.5 µM
AUC ([1]; in vivo, 45 mg/kg, VAN, Rat # 1, dose 45 mg/kg i.v., read-out: Serum AUC (converted)): 216 µM·h
Cmax ([1]; in vivo, 45 mg/kg, VAN, Rat # 1, dose 45 mg/kg i.v., read-out: Serum Cmax): 254 µM
AUC ([1]; in vivo, 45 mg/kg, VAN, Rat # 2, dose 45 mg/kg i.v., read-out: ISF AUC (converted)): 51.3 µM·h
Cmax ([1]; in vivo, 45 mg/kg, VAN, Rat # 2, dose 45 mg/kg i.v., read-out: ISF Cmax): 36.5 µM
AUC ([1]; in vivo, 45 mg/kg, VAN, Rat # 2, dose 45 mg/kg i.v., read-out: Serum AUC (converted)): 184 µM·h
Cmax ([1]; in vivo, 45 mg/kg, VAN, Rat # 2, dose 45 mg/kg i.v., read-out: Serum Cmax): 239 µM
